From US7772285B2, “Benzophenone derivatives or salts thereof” (Toyama Chemical Co., Ltd., priority 2001, dated 2010)

How the values were obtained:
[1] = target: T1, AP-1 complex (Fos/Jun peptide) (Homo sapiens, UniProt P01100+P05412); test: Effect on AP-1 binding activity to AP-1 recognition sequence (ELISA); conditions: inhibition of binding of digoxigenin-labeled AP-1 binding sequence oligonucleotide to Fos/Jun peptide, absorbance 492 nm, read-out: Concentration (μM) at 50% inhibition
T1 construct: made in house; host or cells: chemical peptide synthesis (no expression host)
T1 sequence (P01100 137-200 limits assumed): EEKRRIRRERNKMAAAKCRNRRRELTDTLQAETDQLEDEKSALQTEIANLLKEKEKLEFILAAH
T1 sequence (P05412 252-315 limits assumed): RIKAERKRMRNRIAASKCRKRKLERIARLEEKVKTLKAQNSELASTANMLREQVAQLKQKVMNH
Method: Test Example 1 Effect on AP-1 Binding Activity to AP-1 Recognition Sequence (ELISA)
Jun peptide and Fos peptide with its N-terminal labeled with biotin via 4 glycine residues containing a DNA binding site [Nature, Vol. 373, 1995, 257-261] were synthesized. Each of the peptides was dissolved in Tris buffer [20 mM Tris-hydrochloric acid (pH 7.5), 50 mM potassium chloride, 1 mM ethylenediaminetetraacetic acid, 10 mM magnesium chloride, 1 mM dithiothreitol, 0.5 M guanidinohydrochloric acid, 30% glycerol], and equimolar amounts of the peptide solutions were mixed with each other to be used as an AP-1 complex (Fos/Jun peptide). The AP-1 complex was added onto a 96-well avidin-coated ELISA plate (10 pmol/well). The plate was washed, blocked by bovine serum albumin, and used for binding assay.
Digoxigenin-labeled double-stranded oligonucleotide (22mer) that contained AP-1 binding sequence (3′-TGAGTCA-5′) synthesized by conventional procedure was reacted in binding reaction solution [25 mM tris-hydrochloric acid (pH 7.9), 0.5 mM ethylenediaminetetraacetic acid, 0.05% Nonidet P-40, 10% glycerol] for 30 minutes at room temperature in the presence or absence of samples. After the reaction, unbound labeled oligonucleotide was removed by washing with HEPES buffer containing 0.05% Tween-20. Then peroxidase-labeled anti-digoxigenin antibody was added to react with the labeled oligonucleotide bound to AP-1. After removing excess antibody by washing with HEPES buffer containing 0.05% Tween-20, incubation was conducted for a certain period with o-phenylene diamine as a substrate in 100 mM citric acid buffer (pH 5.0) containing hydrogen peroxide, sulfuric acid solution was added to each well, and the absorbance (492 nm) was measured. Inhibition rate of each sample was calculated from the absorbance obtained in the binding assay carried out in the presence of the sample, taking the absorbance obtained in the absence of the sample=100%.

Male DBA/1J mice = test: Type II collagen-induced arthritis in mouse; format: in vivo; conditions: 10 mg/kg orally once a day from 21 to 35 days after the initial inoculation, vs control group; for Bone destruction inhibition rate: X-ray bone destruction score 36 days after initial inoculation; for Arthritis inhibition rate: arthritis score on 36 days after initial inoculation
Method: Test Example 2 Type II Collagen-Induced Arthritis in Mouse
Male DBA/1J mice aged 8 weeks (Charles River Japan) were used. To a solution of 2 mg/mL bovine type II collagen in 0.1 mol/L acetic acid (Koken), an […] of Freund's complete adjuvant (DIFCO) was added to prepare an emulsion, and 0.2 ml of the emulsion was subcutaneously injected in the tail root region of each mouse. The same treatment was given 21 days after the initial inoculation to induce arthritis in the mice. Test compounds were each suspended in 0.5% methylcellulose solution, and 10 mg/kg of each test compound was given orally to mice once a day from 21 to 35 days after the initial inoculation. To a control group (a negative control group), 0.5% methylcellulose solution was given in the same manner.
Taking the maximum score as 12, the arthritis score was calculated to evaluate the severity of arthritis that was evaluated in the following manner: score 0: no change; score 1: swelling on one or two toes, or slight swelling in the carpal and tarsal joints; score 2: swelling and rubor in more joints; score 3: extensive swelling over whole foreleg or hindleg; and total of the four legs was calculated.
X-ray photographs of four paws were taken 36 days after the initial inoculation, and the severity of bone destruction was evaluated as bone destruction score on a maximum scale, the sum of the points for extremities, of 105 points: 0 or 0.5 points in accordance with presence or absence of osteoporosis in the joints and their vicinity, and for bone erosion, no change at 0 point; “partial bone destruction” at 1 point and “complete bone destruction” at 2 points in the second to fifth interdigital joints, the first to fifth metacarpal and metatarsal joints, and carpal, tarsal and calcaneal regions. Inhibition rate was calculated using the following equation: Inhibition rate(%)=100−(score of the group given the test compound/score of the control group)×100

O=C(O)CCc1cc(C(=O)c2ccc(OC3CCCC3)cc2O)ccc1OCc1ccc(C(=O)O)cc1O [32(1), 4-({2-(2-carboxyethyl)-4-[4-(cyclopentyloxy)-2-hydroxybenzoyl]phenoxy}methyl)-3-hydroxybenzoic acid]
IC50 [1]: 310 µM

O=C(O)CCc1ccc(COc2ccc(C(=O)c3ccc(OC4CCCC4)cc3O)cc2CCC(=O)O)cc1 [49(1)]
IC50 [1]: 330 µM

Cc1cc(C(=O)O)ccc1COc1ccc(C(=O)c2ccc(OC3CCCC3)cc2O)cc1CCC(=O)O [49(3)]
IC50 [1]: 240 µM

CC(C)COc1ccc(C(=O)c2ccc(OCc3ccc(C(=O)NS(C)(=O)=O)cc3)c(CCC(=O)O)c2)c(O)c1 [49(8)]
IC50 [1]: 320 µM

CC(C)COc1ccc(C(=O)c2ccc(OCc3ccc(C(=O)O)cc3)c(CCC(=O)O)c2)c(OCC(C)C)c1 [49(9)]
IC50 [1]: 490 µM

COc1cc(COc2ccc(C(=O)c3ccc(OC4CCCC4)cc3O)cc2CCC(=O)O)ccc1CCC(=O)O [49(11)]
IC50 [1]: 390 µM

CC(Oc1ccc(C(=O)c2ccc(OC3CCCC3)cc2O)cc1CCC(=O)O)c1ccc(C(=O)O)cc1 (centres unmarked) [49(12)]
IC50 [1]: 700 µM
Bone destruction inhibition rate (Male DBA/1J mice): 76%
Arthritis inhibition rate (Male DBA/1J mice): 50%

O=C(O)CCc1cc(C(=O)c2ccc(-c3cccs3)cc2O)ccc1OCc1ccc(C(=O)O)cc1 [49(16)]
IC50 [1]: 380 µM

CC(C)(C)COc1ccc(C(=O)c2ccc(OCc3ccc(C(=O)O)cc3)c(CCC(=O)O)c2)c(O)c1 [49(19)]
IC50 [1]: 280 µM

O=C(O)CCc1cc(C(=O)c2ccc(OC3CCCCC3)cc2O)ccc1OCc1ccc(C(=O)O)cc1 [49(20)]
IC50 [1]: 320 µM

O=C(O)CCc1cc(C(=O)c2ccc(CC3CCCC3)cc2O)ccc1OCc1ccc(C(=O)O)cc1 [49(22)]
IC50 [1]: 200 µM

O=C(O)CCc1cc(C(=O)c2ccc(OCC3CCCC3)cc2O)ccc1OCc1ccc(C(=O)O)cc1 [49(29)]
IC50 [1]: 220 µM

O=C(O)CCc1cc(C(=O)c2ccc(C3CCCC3)cc2O)ccc1OCc1ccc(C(=O)O)cc1 [49(39)]
IC50 [1]: 360 µM

O=C(O)CCc1cc(C(=O)c2ccc(OCc3ccco3)cc2O)ccc1OCc1ccc(C(=O)O)cc1 [49(40)]
IC50 [1]: 280 µM

CC(C)COc1cc(COc2ccc(C(=O)c3ccc(OC4CCCC4)cc3O)cc2CCC(=O)O)ccc1C(=O)O [49(46)]
IC50 [1]: 320 µM

CC(C)COc1ccc(C(=O)c2ccc(OCc3ccc(C(=O)O)cc3)c(CCC(=O)O)c2)c(O)c1 [49(47)]
IC50 [1]: 460 µM

CC(C)COc1ccc(C(=O)c2ccc(OCc3ccc(C(=O)NO)cc3)c(CCC(=O)O)c2)c(O)c1 [49(48)]
IC50 [1]: 310 µM

O=C(O)CCc1cc(C(=O)c2ccc(OC3CCCC3)cc2O)ccc1OCc1ccc(C(=O)O)cc1F [49(51)]
IC50 [1]: 300 µM

O=C(O)CCc1cc(C(=O)c2ccc(OC3CCCC3)cc2O)ccc1OCc1ccc(S(=O)(=O)O)cc1 [49(54)]
IC50 [1]: 270 µM

O=C(O)CCc1cc(C(=O)c2ccc(OCC3CCCCC3)cc2O)ccc1OCc1ccc(C(=O)O)cc1 [49(56)]
IC50 [1]: 130 µM

O=C(O)CCc1cc(C(=O)c2ccc(OC3CCCCCC3)cc2O)ccc1OCc1ccc(C(=O)O)cc1 [49(58)]
IC50 [1]: 190 µM

CS(=O)(=O)NC(=O)c1ccc(COc2ccc(C(=O)c3ccc(OC4CCCC4)cc3O)cc2CCC(=O)O)cc1 [49(62)]
IC50 [1]: 580 µM

O=C(O)CCc1cc(C(=O)c2ccc(OC3CCCC3)cc2O)ccc1OCc1ccc2[nH]c(=O)[nH]c(=O)c2c1 [49(70)]
IC50 [1]: 180 µM

CN1CCN(c2ccc(COc3ccc(C(=O)c4ccc(OC5CCCC5)cc4O)cc3CCC(=O)O)cc2)C(=O)C1=O [49(76)]
IC50 [1]: 380 µM

O=C(O)CCc1cc(C(=O)c2ccc(OC3CCCC3)cc2O)ccc1OCc1nc2cc(C(=O)O)ccc2s1 [49(77)]
IC50 [1]: 380 µM

CCOC(=O)c1ccc(COc2ccc(C(=O)c3ccc(OC4CCCC4)cc3O)cc2CCC(=O)O)cc1OC [54(2), 3-(5-[4-(cyclopentyloxy)-2-hydroxybenzoyl]-2-{[4-(ethoxycarbonyl)-3-methoxybenzyl]oxy}phenyl) propanoic acid]
Bone destruction inhibition rate (Male DBA/1J mice): 78%
Arthritis inhibition rate (Male DBA/1J mice): 65%

CCOC(=O)CCc1cc(C(=O)c2ccc(OCC(C)C)cc2O)ccc1OCc1ccc(C(=O)O)cc1 [72(1), 4-{[2-(3-ethoxy-3-oxopropyl)-4-(2-hydroxy-4-isobutoxybenzoyl)phenoxy]methyl} benzoic acid]
IC50 [1]: 240 µM

O=C(O)CCc1cc(C(=O)c2ccc(OC3CCCC3)cc2O)ccc1OCc1ccc2c(O)noc2c1 [Example 35, 3-{5-[4-(cyclopentyloxy)-2-hydroxybenzoyl]-2-[(3-hydroxyl-1,2-benzisoxazol-6-yl)methoxy]phenyl}propanoic acid]
IC50 [1]: 290 µM
Bone destruction inhibition rate (Male DBA/1J mice): 92%
Arthritis inhibition rate (Male DBA/1J mice): 76%

O=C(O)CCc1cc(C(=O)c2ccc(OC3CCCC3)cc2O)ccc1OCc1ccc(C(=O)O)cc1 [Example 44, 4-({2-(2-carboxyethyl)-4-[4-(cyclopentyloxy)-2-hydroxybenzoyl]phenoxy}methyl) benzoic acid]
IC50 [1]: 420 µM

O=C(O)CCc1cc(C(=O)c2ccc(OC3CCCC3)cc2O)ccc1OCc1csc2c(C(=O)O)cccc12 [Example 45, 3-({2-(2-carboxyethyl)-4-[4-(cyclopentyloxy)-2-hydroxybenzoyl]phenoxy}methyl)-1-benzothiophene-7-carboxilic acid]
IC50 [1]: 140 µM
Bone destruction inhibition rate (Male DBA/1J mice): 81%
Arthritis inhibition rate (Male DBA/1J mice): 55%

O=C(O)/C=C/c1ccc(COc2ccc(C(=O)c3ccc(OC4CCCC4)cc3O)cc2CCC(=O)O)cc1 [Example 46, (E)-3-(4-{[4-[4-(cyclopentyloxy)-2-hydroxybenzoyl]-2-(3-hydroxy-3-oxopropyl)phenoxy]methyl}phenyl)-2-propenoic acid]
IC50 [1]: 330 µM

O=C(O)CCc1cc(C(=O)c2ccc(OC3CCCC3)cc2O)ccc1OCc1ccc(-c2cc(O)no2)cc1 [Example 47, 3-(5-[4-(cyclopentyloxy)-2-hydroxybenzoyl]-2-{[4-(3-hydroxy-5-isoxazolyl)benzyl]oxy}phenyl) propanoic acid]
IC50 [1]: 170 µM

COc1cc(COc2ccc(C(=O)c3ccc(OC4CCCC4)cc3O)cc2CCC(=O)O)ccc1C(=O)O [Example 48, 4-({2-(2-carboxyethyl)-4-[4-(cyclopentyloxy)-2-hydroxybenzoyl]phenoxy}methyl)-2-methoxybenzoic acid]
IC50 [1]: 700 µM
Bone destruction inhibition rate (Male DBA/1J mice): 64%
Arthritis inhibition rate (Male DBA/1J mice): 57%

O=C(CCc1cc(C(=O)c2ccc(OC3CCCC3)cc2O)ccc1OCc1ccc2c(O)noc2c1)OCCN1CCOCC1 [Example 76, 2-(4-morpholinyl) ethyl 3-{5-[4-(cyclopentyloxy)-2-hydroxybenzoyl]-2-[(3-hydroxy-1,2-benzisoxazol-6-yl)methoxy]phenyl} propanoate]
Bone destruction inhibition rate (Male DBA/1J mice): 99%
Arthritis inhibition rate (Male DBA/1J mice): 90%
